Data set [1] deals with TMPRSS2-HiBiT-BEAS-2B cells.
The subject of data set [2] is SARS-CoV-2 pseudovirus. Format: cell-based.
Data set [3] can be described thus: in vitro. The following applies: human.
The subject of data set [4] is SARS-CoV-2 pseudovirus. Nature of the data set: microbe, parasite or virus in culture. It is filed as cell-based. The settings on record: for IC50: Severe acute respiratory syndrome-related coronavirus, Caco-2, read-out: In vitro IC50 (viral entry).
The conditions of data set [5]: human, cited from earlier work.
On the set-up of data set [6]: method as in Selleck L1300 library file. The settings on record: ref Selleck L1300 library file, cited from earlier work.
The target in data set [7] is TMPRSS2 (Homo sapiens, UniProt O15393). Nature of the data set: TMPRSS2 activity assay (Boc-Gln-Ala-Arg-MCA fluorescence). It is filed as biochemical. The following applies: replicates. On the set-up: purchased LSBio. The protocol: Fluorescence (380-15 nm excitation/470-20 nm emission) of the samples was monitored over 4:45 h and the slope of the curves was calculated by linear regression analysis and used as output for TMPRSS2 activity.

Data set [8] concerns B-RafV600E. On the set-up: method as in selleckchem.com. The following applies: ref selleckchem.com, cited from earlier work.

The text below walks through data of paper PMC8222394 (Nature Communications, 2021).

Values joined by “and” are separate entries in the source; they are usually repeats but may differ in a detail not shown here. Identical values can stand only once. Like-named read-outs stand apart in the source and are kept apart here.

TMPRSS2, sequence (O15393 106-492): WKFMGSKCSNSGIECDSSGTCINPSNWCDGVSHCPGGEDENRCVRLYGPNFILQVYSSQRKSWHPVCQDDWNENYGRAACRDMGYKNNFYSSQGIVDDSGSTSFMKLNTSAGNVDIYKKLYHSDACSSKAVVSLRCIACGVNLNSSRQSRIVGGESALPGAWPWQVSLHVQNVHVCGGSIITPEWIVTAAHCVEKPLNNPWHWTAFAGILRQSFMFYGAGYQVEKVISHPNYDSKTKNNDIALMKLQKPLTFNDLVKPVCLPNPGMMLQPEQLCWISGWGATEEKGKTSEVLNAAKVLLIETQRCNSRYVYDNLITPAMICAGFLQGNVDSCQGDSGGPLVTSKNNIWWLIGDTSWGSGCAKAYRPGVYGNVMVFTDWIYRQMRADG

In turn, Verteporfin [reference compound] returned a CC50 in data set [1] of more than 10 µM.
Consider `CC1(C)CCC(CN2CCN(c3ccc(C(=O)NS(=O)(=O)c4ccc(NCC5CCOCC5)c([N+](=O)[O-])c4)c(Oc4cnc5[nH]ccc5c4)c3)CC2)=C(c2ccc(Cl)cc2)C1` [Venetoclax], for which, in data set [2], the “signal relative to Vehicle (FigS7 source data)” value (from here on “signal relative to Vehicle”) was 0.618 and 0.6416 and 0.6544. The compound also had a CC50 in data set [3] of more than 10 µM. In data set [4], the “viral entry” value is “effective in reducing viral entry” and the IC50 was more than 10 µM. Besides, the Cmax in data set [5] (400 mg Oral (QD)) is 1270 nM.
In the case of `Cc1nc(C(=O)NCC(=O)O)c(O)c2ccc(Oc3ccccc3)cc12` [Roxadustat (FG-4592), Roxadustat], in data set [6], the “DMSO (mM)Max Solubility” value was 198.67 mM and the “DMSO (mg/mL)Max Solubility” value is 70.00 mg/mL. Further, the “water (mg/mL)Max Solubility” value in data set [6] (water) is less than 1 mg/mL.
Consider `CNC(=O)c1ccccc1Sc1ccc2c(/C=C/c3ccccn3)n[nH]c2c1` [Axitinib], for which, in data set [6], the “DMSO (mM)Max Solubility” value is 90.56 mM and the “DMSO (mg/mL)Max Solubility” value is listed as 35.00 mg/mL. Also, in data set [6] (water), the “water (mg/mL)Max Solubility” value is given as less than 1 mg/mL.
As to `Cc1coc2c1C(=O)C(=O)c1c-2ccc2c1CCCC2(C)C` [Tanshinone IIA], the “ATP Glo” value in data set [1] (conc 0.01) was 1.137 and 1.427 and 1.128.
As to `COC(=O)Nc1nc2cc(C(=O)c3ccc(F)cc3)ccc2[nH]1` [Flubendazole], the “ATP Glo” value in data set [1] (conc 3) is 0.991 and 1.045 and 1.023.
Turning to `C[C@H]1O[C@H](O[C@H]2[C@H](O)[C@@H](O)[C@@H](O[C@H]3[C@H](O)[C@@H](O)C(O)O[C@@H]3CO)O[C@@H]2CO)[C@H](O)[C@@H](O)[C@@H]1N[C@H]1C=C(CO)[C@@H](O)[C@H](O)[C@H]1O` (stereo partly drawn) [Acarbose], in data set [6], the “DMSO (mM)Max Solubility” value was 154.89 mM and the “DMSO (mg/mL)Max Solubility” value is listed as 100.00 mg/mL. Also, in data set [6] (water), the “water (mM)Max Solubility” value is recorded as 154.89 mM and the “water (mg/mL)Max Solubility” value is 100.00 mg/mL.
For the compound `Cc1nc(Nc2ncc(C(=O)Nc3c(C)cccc3Cl)s2)cc(N2CCN(CCO)CC2)n1` [Dasatinib], the “signal relative to Vehicle” value in data set [2] was 0.6399 and 0.7584 and 0.6593. In data set [3], this compound displayed a CC50 of more than 10 µM. Moreover, in data set [4], the “viral entry” value is “effective in reducing viral entry” and the IC50 was more than 10 µM. Moreover, the Cmax in data set [5] (140 mg Oral (QD)) is 307 nM.
With `CN(C)C(=O)COC(=O)Cc1ccc(OC(=O)c2ccc(NC(=N)N)cc2)cc1` [Camostat], the “TMPRSS2 activity (FigS9 source data)” value in data set [7] (0.08 µM) was -0.0086 and -0.0028 and 0.0044 and -0.0059; in data set [7] (0.4 µM), -0.037 and -0.0342 and -0.033 and -0.0254; in data set [7] (2 µM) it was -0.0401 and -0.0361 and -0.044 and -0.0525. Besides, the “signal relative to Vehicle” value in data set [2] is 0.7432 and 0.6624 and 0.6548.
Regarding `CCCS(=O)(=O)Nc1ccc(F)c(C(=O)c2c[nH]c3ncc(-c4ccc(Cl)cc4)cc23)c1F` [Vemurafenib (PLX4032, RG7204), Vemurafenib], in data set [6], the “DMSO (mM)Max Solubility” value was 197.99 mM and the “DMSO (mg/mL)Max Solubility” value is 97.00 mg/mL. Also, the “water (mg/mL)Max Solubility” value in data set [6] (water) was less than 1 mg/mL. The IC50 in data set [8] (cell-free assay) is 0.031 µM. Besides, in data set [8] (enzymatic assays), the “selectivity for B-RafV600E over wild-type B-Raf” value is listed as 10 fold.
With `COCCOC(=O)C1=C(C)NC(C)=C(C(=O)OC/C=C/c2ccccc2)C1c1cccc([N+](=O)[O-])c1` (stereo not drawn) [Cilnidipine], the CC50 in data set [3] was more than 10 µM. Moreover, in data set [4], the “viral entry” value is given as “effective in reducing viral entry” and the IC50 is approximately 3 µM. Besides, in data set [5] (10 mg Oral (QD)), the Cmax was 18.1 nM.

What is called IC50 is the concentration that inhibits the measured activity by half. What is called Cmax is the maximum level reached in the sampled fluid or tissue.
